Results from ChEMBL document CHEMBL4346683 (Eur J Med Chem, 2019).
≈ marks a conversion by molar mass, not a printed value.

Test system: Mycobacterium tuberculosis
Test: Antibacterial activity against multidrug resistant Mycobacterium tuberculosis
Type: functional

With `CCCCCCCCCCS(=O)(=O)CC(N)=O` as the compound, how does the MIC read?
The MIC was 0.75 to 1.5 µg/mL (≈ 2.85 to 5.69 µM).
